In BindingDB's records for doi:10.1021/jm00163a063 (Merrell Dow Research Institute, 1990):
Peptide text beside a SMILES is read from it. * marks the point of attachment. MeOSuc = COC(=O)CCC(=O)*; Cbz = O=C(OCc1ccccc1)*; Boc = CC(C)(C)OC(=O)*; CF3 = FC(F)(F)*

Tests used:
[1] = Binding affinity against human Elastase for more active diasteriomer
[2] = target: Neutrophil elastase (Homo sapiens) (UniProt P08246); assay: Binding affinity against human Elastase
[3] = target: Cathepsin G (Rattus norvegicus); assay: Binding affinity against rat Cathepsin G

Sequence of Neutrophil elastase (Homo sapiens) (P08246 whole entry, looked up): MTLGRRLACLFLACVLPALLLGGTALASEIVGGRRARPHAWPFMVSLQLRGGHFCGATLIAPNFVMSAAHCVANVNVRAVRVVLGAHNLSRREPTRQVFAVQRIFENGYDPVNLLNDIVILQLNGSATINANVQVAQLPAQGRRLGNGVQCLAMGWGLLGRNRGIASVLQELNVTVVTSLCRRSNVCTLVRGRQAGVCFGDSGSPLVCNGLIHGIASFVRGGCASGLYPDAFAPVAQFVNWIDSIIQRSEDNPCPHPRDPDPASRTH

CCOC(=O)C(F)(F)C(=O)[C@@H](NC(=O)[C@@H]1CCCN1C(=O)[C@H](C)NC(=O)[C@H](C)NC(=O)CCC(=O)OC)C(C)C
Ki [1]: 4.3 µM

COC(=O)CCC(=O)NCCCC[C@H](NS(=O)(=O)C12CC3CC(CC(C3)C1)C2)C(=O)N1CCC[C@H]1C(=O)N[C@H](C(=O)C(F)(F)F)C(C)C
Ki [1]: 0.00058 µM

COC(=O)C(=O)[C@H](C)NC(=O)[C@@H]1CCCN1C(=O)[C@H](C)NC(=O)[C@@H]1CCCN1C(C)=O
Ki [1]: 0.85 µM

CC(=O)N[C@@H](C)C(=O)N[C@@H](C)C(=O)N1CCC[C@H]1C(=O)N[C@@H](C)C(=O)C(F)(F)F (Ac-AAPA-CF3)
Ki [2]: 24 µM

CC(C)[C@H](NC(=O)[C@@H]1CCCN1C(=O)[C@H](C)NC(=O)[C@H](C)NC(=O)OC(C)(C)C)C(=O)C(F)(F)F (Boc-AAPV-CF3)
Ki [1]: 0.044 µM

CC(C)[C@H](NC(=O)[C@@H]1CCCN1C(=O)[C@H](C)NC(=O)[C@H](C)NC(=O)OCc1ccccc1)C(=O)C(F)(F)F (Cbz-AAPV-CF3)
Ki [1]: 0.001 µM

COC(=O)CCC(=O)N[C@H](C(=O)N1CCC[C@H]1C(=O)N[C@@H](Cc1ccccc1)C(=O)C(F)(F)F)C(C)C (MeOSuc-Val-Pro-Phe-CF3)
Ki [3]: 0.2 µM
